Measured values reported in ChEMBL document CHEMBL1142978, “Probing the anticancer activity of nucleoside analogues: a QSAR model approach using an internally consistent training set” (J Med Chem, 2007).

assay: Cytotoxicity against mouse L1210/0 cells after 48 hrs; assay type: cell-based; details: Mus musculus, L1210/0, 48 h

C[C@@]1(CO)O[C@H](c2cc(F)c(N)cc2F)C[C@@H]1O and CC1(C)[C@@H](CCCO)C[C@H]1n1cnc2c(Cl)nc(N)nc21 cannot be ordered by IC50: greater than 200 µM for the first, greater than 200 µM for the second.

Going from CC(=O)OCCOCn1cnc2c(Cl)nc(N)nc21 to CC(=O)OCCOCn1cnc2c(=S)[nH]c(N)nc21, the IC50 falls from greater than 200 µM to 3.2 µM. The second is the more potent here.

O=c1[nH]c(=O)n([C@H]2C[C@H](O)[C@@H](CO)O2)cc1C#Cc1ccccc1 and O=c1[nH]c(=O)n([C@H]2C[C@H](O)[C@@H](CO)O2)cc1C#CCO cannot be ordered by IC50: greater than 200 µM for the first, greater than 200 µM for the second.

Nc1nc2c(nc(O)n2COCCO)c(=O)[nH]1 and Nc1nc2c(nc(Cl)n2COCCO)c(=O)[nH]1 cannot be ordered by IC50: greater than 200 µM for the first, greater than 200 µM for the second.

O=C1O/C(=C\Cn2cc(F)c(=O)[nH]c2=O)C(OCc2ccccc2)=C1OCc1ccccc1 and O=C1O/C(=C\Cn2cc(I)c(=O)[nH]c2=O)C(OCc2ccccc2)=C1OCc1ccccc1 are within 1.5-fold of each other in IC50: 5.1 µM for the first, 7.5 µM for the second.

Going from CO/N=C/C1CC(n2cnc3c(N)ncnc32)C(O)C1O (stereo not given) to Nc1ncnc2c1ncn2C1CC(O)C(/C=N/O)O1 (stereo not given), the IC50 falls from greater than 200 µM to 17.4 µM. The second is the more potent here.

Cc1ccc(S(=O)(=O)OCCC#Cc2cn([C@H]3C[C@H](O)[C@@H](CO)O3)c(=O)[nH]c2=O)cc1 and COCC#Cc1cn([C@H]2C[C@H](O)[C@@H](CO)O2)c(=O)[nH]c1=O cannot be ordered by IC50: greater than 200 µM for the first, greater than 200 µM for the second.

OC[C@@H]1CC(n2cnc3c(NC4CC4)ncnc32)C[C@@H]1CO (stereo not given in full) and OC[C@@H]1CCC[C@H]1Cn1cnc2c(O)ncnc21 cannot be ordered by IC50: greater than 200 µM for the first, greater than 200 µM for the second.

Going from O=C1O/C(=C\Cn2ccc(=O)[nH]c2=O)C(OCc2ccccc2)=C1OCc1ccccc1 to O=C1OC(C(O)Cn2ccc(=O)[nH]c2=O)C(OCc2ccccc2)=C1OCc1ccccc1 (stereo not given), the IC50 rises from 12.9 µM to 157 µM (12-fold). The first is the more potent here.

Going from CC1=C(C)C(=O)C(c2cn([C@H]3C[C@H](O)[C@@H](CO)O3)c(=O)[nH]c2=O)=CC1=O to O=c1[nH]c(=O)n([C@H]2C[C@H](O)[C@@H](CO)O2)cc1[N+](=O)[O-], the IC50 falls from 112 µM to 0.13 µM (860-fold).

Compared with Nc1nc2c(ncn2CCOCP(=O)(O)O)c(=O)[nH]1 [GS-438], CC1(C)[C@@H](CCCO)C[C@H]1n1cnc2c(=O)[nH]c(N)nc21 is higher in IC50: 0.57 µM for the first, greater than 200 µM for the second. The first is the more potent here.

CC1(C)[C@@H](CO)CC[C@@]1(C)Cn1ccc(=O)[nH]c1=O and O=c1ccn(COCCO)c(=O)[nH]1 cannot be ordered by IC50: greater than 200 µM for the first, greater than 200 µM for the second.

Going from CC1(C)[C@@H](Cn2cnc3c(Cl)nc(N)nc32)CC[C@@]1(C)CO to CC1(C)C(CO)CC1Cn1cnc2c(Cl)nc(N)nc21 (stereo not given), the IC50 rises from 50 µM to greater than 200 µM.

Going from C#Cc1cn([C@H]2C[C@H](O)[C@@H](CO)O2)c(=O)[nH]c1=O to O=c1[nH]c(=O)n([C@H]2C[C@H](O)[C@@H](CO)O2)cc1CO, the IC50 rises from 0.36 µM to 9.18 µM (26-fold). The first is the more potent here.

Compared with OC[C@H]1C[C@@H](Cn2cnc3c(-c4ccc(Cl)cc4)ncnc32)c2ccccc21, Nc1ncnc2c1ncn2C[C@@H]1C[C@H](CO)c2ccccc21 is higher in IC50: 8.44 µM for the first, greater than 200 µM for the second.

CC1(C)C(CO)CC1Cn1nnc2c(N)nc(N)nc21 (stereo not given) and CC1(C)[C@@H](CCCO)C[C@H]1n1nnc2c(N)nc(N)nc21 cannot be ordered by IC50: greater than 200 µM for the first, greater than 200 µM for the second.

O[C@H]1C[C@@H](Cn2cnc3c(Cl)ncnc32)c2ccccc21 and COc1ncnc2c1ncn2C[C@@H]1C[C@H](O)c2ccccc21 cannot be ordered by IC50: greater than 200 µM for the first, greater than 200 µM for the second.

O=c1[nH]cnc2c1nnn2CC1CCC(CO)C1 (stereo not given) and Nc1nc(Cl)c2ncn([C@H]3CCCC[C@H]3CO)c2n1 cannot be ordered by IC50: greater than 200 µM for the first, greater than 200 µM for the second.

Compared with CC(=O)OCCOCn1cnc2c(S)nc(F)nc21, Nc1nc(=O)ccn1COCCO is higher in IC50: 40 µM for the first, greater than 200 µM for the second.

First: O=c1[nH]c(=O)n([C@H]2C[C@H](O)[C@@H](CO)O2)cc1C1SCCS1
Second: C=Cc1cn([C@H]2C[C@H](O)[C@@H](CO)O2)c(=O)[nH]c1=O
The IC50 of the first is higher: greater than 200 µM for the first, 14.2 µM for the second. The second is the more potent here.

First: OC[C@@H]1C[C@H](Cn2cnc3c(NC4CC4)ncnc32)c2c(-c3ccccc3)nnc(-c3ccccc3)c21
Second: OC[C@@H]1C[C@H](Cn2cnc3c(NC4CCC4)ncnc32)c2c(-c3ccccc3)nnc(-c3ccccc3)c21
The IC50 of the first is higher: greater than 200 µM for the first, 90.8 µM for the second.

Going from O=c1[nH]cc(F)c(=O)[nH]1 [FLUOROURACIL] to O=c1[nH]c(=O)n(COCCO)cc1Br, the IC50 rises from 0.31 µM to greater than 200 µM. The first is the more potent here.

Compared with Nc1ncnc2c1nnn2[C@@H]1C[C@H](CO)[C@@H](CO)[C@H]1CO, Nc1ncnc2c1ncn2[C@@H]1O[C@H](/C=C\Br)[C@H](O)[C@@H]1O is lower in IC50: greater than 200 µM for the first, 104 µM for the second. The second is the more potent here.

Compared with CC1NC(=O)C(F)=CN1[C@@H]1O[C@H](COP2OCCCO2)[C@@H](O)C1=O (stereo not given in full), O=c1[nH]c(=O)n([C@H]2C[C@H](O)[C@@H](CO)O2)cc1/C=C/I is 85-fold higher in IC50: 0.75 µM for the first, 63.9 µM for the second. The first is the more potent here.

First: CC(C)(C)C#Cc1cn([C@@H]2O[C@H](CO)[C@@H](O)[C@@H]2O)c(=O)[nH]c1=O
Second: Nc1ccn([C@@H]2O[C@H](CO)[C@@H](O)[C@@H]2O)c(=O)n1 [CYTARABINE]
The IC50 of the first is higher: greater than 200 µM for the first, 0.7 µM for the second. The second is the more potent here.

Going from COC1=C(OC)/C(=C/C(n2cnc3c(Cl)ncnc32)P(=O)(OC)OC)OC1=O (stereo not given) to COC1=C(OC)/C(=C/C(n2cnc3c(N)ncnc32)P(=O)(O)O)OC1=O (stereo not given), the IC50 falls from 37.7 µM to 11.4 µM (3.3-fold). The second is the more potent here.

Cc1cn(COCCO)c(=O)[nH]c1=O and OC[C@@H]1[C@@H]2COC[C@H]2C[C@H]1n1cnc2c(Cl)ncnc21 cannot be ordered by IC50: greater than 200 µM for the first, greater than 200 µM for the second.

C#C[C@H]1O[C@@H](n2cnc3c(N)ncnc32)[C@@H](O)[C@H]1O showed an IC50 of 1.2 µM.
